# In US20220184034A1, “METHODS FOR TREATING CUTANEOUS METASTATIC CANCERS” (Adgero Biopharmaceuticals Holdings, Inc., priority 2020, published 2022):
# System: cutaneous lesions arising from either basal cell cancer, squamous cell cancer or CMBC
# Experiment: Phase 1/2 dose escalation study of SnET2 PDT: lesion response
# Type: in vivo, patients
# Method: Two Phase 1/2 studies established the clinical dosimetry. The first study was a dose escalation study that enrolled a total of 22 patients with cutaneous lesions arising from either basal cell cancer, squamous cell cancer or CMBC. A total of 213 lesions were treated using photosensitizer SnET2) doses ranging from 0.1-1.2 mg/kg, light doses of 100, 150 or 200 J/cm^2 and treatment timepoints of 24, 48, or 72 hours post-infusion. Two key measures were utilized in these studies, lesion reaction and lesion response. Lesion reaction was an acute characterization of the treatment effect that was performed out to 1 week post-treatment according to the following scale: • Grade 0=No visual erythema or edema • Grade 1=Faint erythema and/or slight edema • Grade 2=Moderate erythema and edema • Grade 3=Severe discoloration, edema, sloughing or eschar
# Beginning at one month post-treatment and then at 3 and 6 months post-treatment, a lesion response assessment was conducted according to the following scoring system: • Complete Response (complete reduction of the lesion) • Partial Response (more than 50% reduction of the lesion) • Failure (less than 50% reduction of the lesion).
# Therefore, in the analysis that follows, results from all three treatment timepoints have been combined.
# A similar result was observed when individual patient responses were compared. In these studies, individual patients received a single drug dose and each patient then had individual lesions treated at various light doses (100, 150, or 200 J/cm^2) and treatment timepoints (24, 48, 72 hours post-infusion). In Table 3, results for each patient treated at 0.8 mg/kg or higher are provided. In each drug dose case, individual lesions were treated at one of the three light doses and one of the three treatment timepoints, all of which have been combined for each individual patient result in the table.
# [1] = 0.1 mg/kg, 100 J/cm^2, 24/48/72 h combined
# [2] = 0.1 mg/kg, 150 J/cm^2, 24/48/72 h combined
# [3] = 0.1 mg/kg, 200 J/cm^2, 24/48/72 h combined
# [4] = 0.2 mg/kg, 100 J/cm^2, 24/48/72 h combined
# [5] = 0.2 mg/kg, 150 J/cm^2, 24/48/72 h combined
# [6] = 0.2 mg/kg, 200 J/cm^2, 24/48/72 h combined
# [7] = 0.4 mg/kg, 100 J/cm^2, 24/48/72 h combined
# [8] = 0.4 mg/kg, 150 J/cm^2, 24/48/72 h combined
# [9] = 0.4 mg/kg, 200 J/cm^2, 24/48/72 h combined
# [10] = 0.8 mg/kg, 100 J/cm^2, 24/48/72 h combined
# [11] = 0.8 mg/kg, 100 J/cm^2, lesions scored for reaction at Week 1
# [12] = 0.8 mg/kg, 150 J/cm^2, 24/48/72 h combined
# [13] = 0.8 mg/kg, 150 J/cm^2, lesions scored for reaction at Week 1
# [14] = 0.8 mg/kg, 200 J/cm^2, 24/48/72 h combined
# [15] = 0.8 mg/kg, 200 J/cm^2, lesions scored for reaction at Week 1
# [16] = 1.0 mg/kg, 100 J/cm^2, 24/48/72 h combined
# [17] = 1.0 mg/kg, 100 J/cm^2, lesions scored for reaction at Week 1
# [18] = 1.0 mg/kg, 150 J/cm^2, 24/48/72 h combined
# [19] = 1.0 mg/kg, 150 J/cm^2, lesions scored for reaction at Week 1
# [20] = 1.0 mg/kg, 200 J/cm^2, 24/48/72 h combined
# [21] = 1.0 mg/kg, 200 J/cm^2, lesions scored for reaction at Week 1
# [22] = 1.2 mg/kg, 100 J/cm^2, 24/48/72 h combined
# [23] = 1.2 mg/kg, 100 J/cm^2, lesions scored for reaction at Week 1
# [24] = 1.2 mg/kg, 150 J/cm^2, 24/48/72 h combined
# [25] = 1.2 mg/kg, 150 J/cm^2, lesions scored for reaction at Week 1
# [26] = 1.2 mg/kg, 200 J/cm^2, 24/48/72 h combined
# [27] = 1.2 mg/kg, 200 J/cm^2, lesions scored for reaction at Week 1
# [28] = patient RC004, drug dose 0.8 mg/kg, light doses and timepoints combined
# [29] = patient RC005, drug dose 1.2 mg/kg, light doses and timepoints combined
# [30] = patient RC006, drug dose 1.2 mg/kg, light doses and timepoints combined
# [31] = patient RC007, drug dose 1.2 mg/kg, light doses and timepoints combined
# [32] = patient SC001, drug dose 1.2 mg/kg, light doses and timepoints combined
# [33] = patient SC002, drug dose 1 mg/kg, light doses and timepoints combined
# [34] = patient SC003, drug dose 1 mg/kg, light doses and timepoints combined
# [35] = patient SC004, drug dose 1 mg/kg, light doses and timepoints combined
# [36] = patient SC005, drug dose 1.2 mg/kg, light doses and timepoints combined
# [37] = patient WC007, drug dose 0.8 mg/kg, light doses and timepoints combined
# [38] = patient WC008, drug dose 0.8 mg/kg, light doses and timepoints combined
# [39] = patient WC009, drug dose 1.2 mg/kg, light doses and timepoints combined
# [40] = patient WC010, drug dose 1.2 mg/kg, light doses and timepoints combined
substance,measurement,setting,value
tin ethyl etiopurpurin [SnET2],Complete Responders,[1],0
same,Partial Responders,[1],0
same,Response Rate (%),[1],0%
same,Total Responders,[1],0
same,Complete Responders,[2],0
same,Partial Responders,[2],0
same,Response Rate (%),[2],0%
same,Total Responders,[2],0
same,Complete Responders,[3],0
same,Partial Responders,[3],0
same,Response Rate (%),[3],0%
same,Total Responders,[3],0
same,Complete Responders,[4],0
same,Partial Responders,[4],1
same,Response Rate (%),[4],50%
same,Total Responders,[4],1
same,Complete Responders,[5],0
same,Partial Responders,[5],0
same,Response Rate (%),[5],0%
same,Total Responders,[5],0
same,Complete Responders,[6],0
same,Partial Responders,[6],0
same,Response Rate (%),[6],0%
same,Total Responders,[6],0
same,Complete Responders,[7],0
same,Partial Responders,[7],0
same,Response Rate (%),[7],0%
same,Total Responders,[7],0
same,Complete Responders,[8],0
same,Partial Responders,[8],0
same,Response Rate (%),[8],0%
same,Total Responders,[8],0
same,Complete Responders,[9],0
same,Partial Responders,[9],0
same,Response Rate (%),[9],0%
same,Total Responders,[9],0
same,lesions with responses,0.8 mg/kg or higher,95 of 102
same,Complete Responders,[10],9
same,Partial Responders,[10],2
same,Response Rate (%),[10],78%
same,Total Responders,[10],11
same,% Responders,[11],79%
same,Total Responders,[11],11
same,Complete Responders,[12],8
same,Partial Responders,[12],5
same,Response Rate (%),[12],87%
same,Total Responders,[12],13
same,% Responders,[13],87%
same,Total Responders,[13],13
same,Complete Responders,[14],12
same,Partial Responders,[14],1
same,Response Rate (%),[14],87%
same,Total Responders,[14],13
same,% Responders,[15],87%
same,Total Responders,[15],13
same,Complete Responders,[16],3
same,Partial Responders,[16],0
same,Response Rate (%),[16],100%
same,Total Responders,[16],3
same,% Responders,[17],100%
same,Total Responders,[17],3
same,Complete Responders,[18],4
same,Partial Responders,[18],1
same,Response Rate (%),[18],100%
same,Total Responders,[18],5
same,% Responders,[19],100%
same,Total Responders,[19],5
same,Complete Responders,[20],8
same,Partial Responders,[20],0
same,Response Rate (%),[20],100%
same,Total Responders,[20],8
same,% Responders,[21],100%
same,Total Responders,[21],8
same,Complete Responders,[22],5
same,Partial Responders,[22],7
same,Response Rate (%),[22],100%
same,Total Responders,[22],12
same,% Responders,[23],100%
same,Total Responders,[23],6
same,Complete Responders,[24],7
same,Partial Responders,[24],9
same,Response Rate (%),[24],100%
same,Total Responders,[24],16
same,% Responders,[25],100%
same,Total Responders,[25],9
same,Complete Responders,[26],11
same,Partial Responders,[26],3
same,Response Rate (%),[26],100%
same,Total Responders,[26],14
same,% Responders,[27],100%
same,Total Responders,[27],7
same,response rate of individual patients,"all patients at 0.8 mg/kg or higher, with the exception of one patient dosed at 0.8 mg/kg",100%
same,response at the drug dose threshold and greater,at about 0.5 to about 0.8 mg/kg and greater (1.2 mg/kg),good responses were observed
same,threshold dose for lesion response,dose escalation 0.1-1.2 mg/kg,0.8 mg/kg
same,response below the drug dose threshold,doses below about 0.5 to about 0.8 mg/kg,no response was observed
same,Lesions Responded,doses less than 0.8 mg/kg,1 of 111
same,influence of light dose and treatment timepoint,"light doses 100 to 200 J/cm^2, timepoints 24 to 72 hours post administration",did not indicate significant differences
same,variation in response with treatment timepoint,"light given at 24, 48 or 72 hours after administration",minimal variation in response with treatment timepoint
same,% Lesions Responded,[28],74%
same,Lesions Responded,[28],20
same,% Lesions Responded,[29],100%
same,Lesions Responded,[29],6
same,% Lesions Responded,[30],100%
same,Lesions Responded,[30],1
same,% Lesions Responded,[31],100%
same,Lesions Responded,[31],3
same,% Lesions Responded,[32],100%
same,Lesions Responded,[32],4
same,% Lesions Responded,[33],100%
same,Lesions Responded,[33],6
same,% Lesions Responded,[34],100%
same,Lesions Responded,[34],6
same,% Lesions Responded,[35],100%
same,Lesions Responded,[35],4
same,% Lesions Responded,[36],100%
same,Lesions Responded,[36],6
same,% Lesions Responded,[37],100%
same,Lesions Responded,[37],9
same,% Lesions Responded,[38],100%
same,Lesions Responded,[38],8
same,% Lesions Responded,[39],100%
same,Lesions Responded,[39],20
same,% Lesions Responded,[40],100%
same,Lesions Responded,[40],2
